Results: patent US6930207B2, “Trifluoroacetylalkyl-substituted phenyl, phenol and benzoyl compounds and related methods of treatment” (Solvay Pharmaceutical GmbH, priority 2001, dated 2005)
Read-outs that look alike come from different tables or passages of the source.

Columns and labels:
[1] = target: T1, porcine pancreatic lipase (Sus scrofa, UniProt P00591); assay: in vitro pancreatic lipase activity test (lipolytic release of p-nitrophenol from p-nitrophenyl palmitate, extinction at 405 nm); type: biochemical; settings: read-out: residual lipase activity, relative to the original initial lipolytic activity; for remaining activity at 0.182 µM: test substance concentration 0.182 μM; for remaining activity at 0.091 µM: test substance concentration 0.091 μM
T1 sequence (P00591 1-450): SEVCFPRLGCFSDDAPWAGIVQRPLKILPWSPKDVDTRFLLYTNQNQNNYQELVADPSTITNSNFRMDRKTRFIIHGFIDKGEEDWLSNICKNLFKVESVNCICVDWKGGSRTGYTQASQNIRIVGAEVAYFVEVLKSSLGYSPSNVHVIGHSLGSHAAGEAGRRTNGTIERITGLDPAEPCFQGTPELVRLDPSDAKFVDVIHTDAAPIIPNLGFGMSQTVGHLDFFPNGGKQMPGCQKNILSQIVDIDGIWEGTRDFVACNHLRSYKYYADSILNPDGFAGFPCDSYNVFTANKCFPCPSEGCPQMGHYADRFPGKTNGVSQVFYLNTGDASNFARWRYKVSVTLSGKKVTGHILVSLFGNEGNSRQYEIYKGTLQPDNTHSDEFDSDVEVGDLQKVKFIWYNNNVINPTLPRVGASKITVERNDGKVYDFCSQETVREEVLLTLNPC
Description: In this test the inhibition of the lipolytic action of porcine pancreatic lipase with respect to the test substrate p-nitrophenyl palmitate under the influence of the test substances of Formula I was determined. Therein, the change in the relative extinction of the investigated solutions caused by the lipolytic release of p-nitrophenol from p-nitrophenyl palmitate was measured. The residual activity of the lipase remaining after the addition of the test substances is given in percent, relative to the original initial lipolytic activity. The example numbers quoted relate to the preparation examples given below.
The reagents given below are prepared: • 1. Substrate Solution • For the preparation of a “solution A”, 45 mg p-nitrophenyl palmitate was dissolved in 15 ml isopropanol by sonication with ultrasound. For the preparation of a “solution B” 310 mg Na-deoxycholate dry substance and 150 mg gum arabic were dissolved in 135 ml 0.05 M sodium phosphate buffer (pH=8.0). 5 minutes before the test was performed, 9 ml “solution B” was mixed with 1 ml “solution A” to form a “solution C” and brought to a temperature of 38° C. • 2. Pancreatic Lipase Solution • 100 mg FIP-lipase standard LS7 (porcine pancreatic lipase, 36,700 FIP units/g) were dissolved in 50 ml ice-cold 1%-strength aqueous sodium chloride solution and filtered through a 0.2 μm-syringe filter. After determination of the lipase activity in accordance with FIP, the solution was set to an activity of 40 FIP units/ml with 1%-strength aqueous sodium chloride solution. Dilute pancreatic lipase solutions which had activities of in each case 10, 20 and 30 FIP units/ml were also prepared from the pancreatic lipase solution for a calibration series by diluting with 1%-strength aqueous sodium chloride solution. • 3. Inhibitor Solutions • The lipase-inhibitory compounds of Formula I were dissolved in various concentrations in dimethyl sulfoxide (DMSO), so that between 2.0 and 800 nmol of the inhibitor were present in 100 μl inhibitor solution. Pure DMSO was used to determine the blank reading. Performance of the Test
100 μl of the inhibitor solution of a given concentration prepared as described above was temperature-controlled for 5 minutes in the cell changer of a photometer (Biochrom 4060). Then 1 ml of the above “solution C” was added with stirring. Then the reaction was started by addition of 100 μl pancreatic lipase solution with stirring. 2 minutes after the start of the reaction, the extinction of each sample was detected for 4 minutes at 405 nm.
In each case, in addition to the sample measurement, a calibration series was also measured to determine the lipase activity. […] The calibration series served to determine the lipase activity. To determine the calibration series, the lipase units used were plotted against the extinction values (dE/min) determined in each case. Using these calibration lines and the extinction values determined for the respective incubation batches, the lipase activity can be determined for each sample. […] To determine the blank reading, 100 μl DMSO were mixed with 1 ml “solution C” and the reaction was started by addition of 100 μl of a lipase solution.
The measured value of the photometer per batch (dE/min.) is yielded by the difference in the extinction values after the second and sixth minute (dE) divided by the measuring time (dt=4 min.). The blank reading is determined analogously and then subtracted from the measured value. The residual activity can be read off via the calibration line by means of the dE value calculated in this manner.
In the pancreatic lipase activity test set forth above, the test substances given below each in a concentration (c) of 0.727 μM (unless otherwise stated) caused an inhibition of the lipase activity to the fraction of the original initial activity given below. The compounds of Examples 17, 28, 29, 32, 39, 40, 47, 48, 56, 58 and 59 were measured in a concentration of 0.364 μM each time. […]

[2] = test substance concentration (c) 0.727 μM, substrate p-nitrophenyl palmitate
[3] = substrate p-nitrophenyl palmitate
[4] = range of examples with mixed concentrations: 0.727 μM unless otherwise stated, Ex. 17, 28, 29, 32, 39, 40, 47, 48, 56, 58, 59 at 0.364 μM, 21, 35, 37, 38, 49, 50, 51, 54, 55, 64 at 0.182 μM, 46, 61, 62, 65 at 0.091 μM

SMILES	remaining activity at 0.727 µM [1, 2] [%]	melting point [°C]	remaining activity at 0.182 µM [1, 3] [%]	also measured
O=C(CCCCCCCCCCOc1ccccc1)C(F)(F)F [Example 5, 1,1,1-trifluoro-12-phenoxy-dodecan-2-one]	≤ 60	47 to 49		
O=C(CCCCCCCCCc1ccccc1)C(F)(F)F [Example 8, 1,1,1-trifluoro-11-phenyl-undecan-2-one]	≤ 60			
COc1ccc(CCCC(=O)C(F)(F)F)cc1 [Example 11, 5-(4-methoxyphenyl)-1,1,1-trifluoropentan-2-one]	≤ 60			
O=C(CCCOc1ccc(OCCCc2ccccc2)cc1)C(F)(F)F [Example 32, 1,1,1-trifluoro-5-[4-(3-phenylpropoxy)phenoxy]pentan-2-one]		32 to 35		
O=C(CCCC(=O)C(F)(F)F)c1cccc(OCc2ccccc2)c1 [Example 34, 6,6,6-trifluoro-1-(3-benzyloxyphenyl)hexane-1,5-dione]	≤ 20			
COc1ccc(C(=O)CCCC(=O)C(F)(F)F)cc1CCCCc1ccccc1 [Example 35, 6,6,6-trifluoro-1-[4-methoxy-3-(4-phenylbutyl)phenyl]hexane-1,5-dione]			≤ 35	
O=C(CCCC(=O)C(F)(F)F)c1ccc(-c2cccc3ccccc23)cc1 [Example 37, 6,6,6-trifluoro-1-[4-(1-naphthyl)phenyl]hexane-1,5-dione]			≤ 20	
COc1ccc(C(=O)C(CCCCOc2ccccc2)CCC(=O)C(F)(F)F)cc1 (stereo not shown) [Example 38, 6,6,6-trifluoro-1-(4-methoxyphenyl)-2-(4-phenoxybutyl)hexane-1,5-dione]			≤ 20	
O=C(CCCC(=O)C(F)(F)F)c1ccc(OCCCCOc2ccccc2)cc1 [Example 54, 6,6,6-trifluoro-1-(4-(4-phenoxybutoxy)phenyl)hexane-1,5-dione]		78.8 to 80.4	≤ 35	remaining activity at 0.727 µM [1, 4]: ≤ 60%
O=C(CCCC(=O)C(F)(F)F)c1ccc(OCCCc2ccccc2)cc1 [Example 55, 6,6,6-trifluoro-1-(4-(3-phenylpropoxy)phenyl)hexane-1,5-dione]		52.6 to 54.5	≤ 35	remaining activity at 0.727 µM [1, 4]: ≤ 60%
O=C(CCCC(=O)C(F)(F)F)c1ccc(Br)cc1 [Example 57, 1-(4-bromophenyl)-6,6,6-trifluorohexane-1,5-dione]	≤ 35			
O=C(CCCC(=O)C(F)(F)F)c1ccc2c(c1)CCCC2 [Example 60, 6,6,6-trifluoro-1-(5,6,7,8-tetrahydronaphthalen-2-yl)hexane-1,5-dione]				remaining activity at 0.727 µM [1, 4]: ≤ 20%
O=C(CCCC(=O)C(F)(F)F)c1ccc(-c2ccc3ccccc3c2)cc1 [Example 62, 6,6,6-trifluoro-1-(4-(2-naphthyl)phenyl)hexane-1,5-dione]				remaining activity at 0.727 µM [1, 4]: ≤ 20%; remaining activity at 0.091 µM [1, 3]: ≤ 60%
CCCCCCCCCCCCCCCCOc1ccc(C(=O)CCCC(=O)C(F)(F)F)cc1 [Example 63, 6,6,6-trifluoro-1-(4-(hexadecyloxy)phenyl)hexane-1,5-dione]		67.7 to 68.9		
CCCCCCCCCCCCCCOc1ccc(C(=O)CCCC(=O)C(F)(F)F)cc1 [Example 65, 6,6,6-trifluoro-1-(4-(tetradecyloxy)phenyl)hexane-1,5-dione]		63.3 to 65		remaining activity at 0.091 µM [1, 3]: ≤ 20%
